Measurements published in patent US11198741B2, “Medicines for topic use based on sulfated hyaluronic acid as activating or inhibiting agent of the cytokine activity” (Fidia Farmaceutici S.p.A., priority 2009, dated 2021).

Assays:
[1] = test system: IL-2; assay: Protein synthesis of IL-2 in human PBMC (SearchLight array); conditions: not stimulated or stimulated with LPS or PHA (10 μg/ml), 24 hours, FIG. 6: HAS1 0.1 mg/ml, HAS3 1 mg/ml, vs HA
Procedure: For these experimentations, mononucleate cells of human peripheral blood (PBMC) were adopted, deriving from various donors for evaluating the effect of HAS on the production of the cytokines listed above, using:
The separation of the PBMC (Bøyum A., Scand J Clin Lab Invest 21 Suppl, 1968, 97:77-89) was effected using the product Ficoll-Paque PLUS (GE Healthcare) and following the protocol indicated by the supplier. At day zero 100,000 cells were plated per well (using plates with 96 wells) in 200 μl of medium RPMI 1640, to which 10% of fetal bovine serum, HEPES 10 mM, Glutamine 2 mM, 1% Penicillin-Streptomycin 100 U/ml, had been added. […] The cells were treated separately with the three compounds at a concentration of 0.1 mg/ml or 1 mg/ml. After 24 hours of incubation at 37° C. (5% CO2), 100 μl of supernatant were taken from each well in order to analyze the production of IL-2, IL-7, IL-10 and IL-12.
The quantification of the inflammation mediators was effected by means of the SearchLight® technology, using a Custom Human 9-flex Array plate following the protocol indicated by the supplier in the technical card.

[2] = molecular target: T1, IL-1 receptor (Mus musculus, UniProt P13504); assay: Inhibition of the binding of 125I-IL-1 to its receptor in 3T3 fibroblasts (Radioligand Binding); conditions: 3T3 cells of mouse, 125I-IL-1 10 pM, sample 1 mg/ml, 37° C. 2 hours; both medium and low MW
T1 construct: the line of murine fibroblasts 3T3 was used, sensitive to the cytotoxic activity of IL-1, expressing its relative receptor; endogenous in cells; host or cells: 3T3 murine fibroblasts (whole cells)
T1 sequence (P13504 20-576): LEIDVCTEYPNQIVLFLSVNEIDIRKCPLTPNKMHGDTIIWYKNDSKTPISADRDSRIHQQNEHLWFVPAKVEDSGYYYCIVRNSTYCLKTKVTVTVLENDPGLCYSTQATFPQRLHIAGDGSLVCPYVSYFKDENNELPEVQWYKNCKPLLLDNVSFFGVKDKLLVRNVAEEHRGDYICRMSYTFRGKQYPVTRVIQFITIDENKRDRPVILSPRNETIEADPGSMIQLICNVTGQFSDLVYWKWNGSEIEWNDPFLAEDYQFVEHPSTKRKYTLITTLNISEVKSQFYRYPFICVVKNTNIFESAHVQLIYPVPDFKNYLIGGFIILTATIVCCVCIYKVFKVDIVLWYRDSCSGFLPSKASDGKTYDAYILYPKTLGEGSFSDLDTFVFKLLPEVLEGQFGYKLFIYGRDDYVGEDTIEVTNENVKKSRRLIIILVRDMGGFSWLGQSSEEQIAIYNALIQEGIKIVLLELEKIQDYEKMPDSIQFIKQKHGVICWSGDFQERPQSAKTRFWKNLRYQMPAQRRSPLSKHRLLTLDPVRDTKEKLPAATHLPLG
Text: These experiments were effected to evaluate the effectiveness of the samples tested (prepared according to Examples 1-3 and 4) on the capacity of inhibiting the binding of IL-1 to its receptor expressed by 3T3 cells of mouse, normally used in vitro for this type of experiment, carried out with iodinated cytokine components for an evaluation in Radioligand Binding assays. The experimental procedure was effected as described in Chin J et al., J Exp Med, 1987, 165:70-86. In short, the line of murine fibroblasts 3T3 was used, sensitive to the cytotoxic activity of IL-1, expressing its relative receptor. […] At the end of the incubation, the cells were washed with phosphate buffer, then dissolved in 2.5 M of NaOH and counted in a γ-counter.

[3] = test system: Cytomegalovirus (CMV: AD-169 and Davis strain); assay: Inhibition of Cytomegalovirus plaque formation in HEL cells; format: cell-based; conditions: numbers only in FIG. 11
Procedure: The activity of the samples tested was determined by evaluating the inhibition of the cytopathogenicity determined by Cytomegalovirus (CMV: AD-169 and Davis strain) using the previous protocol. The antiviral activity was tested vs HEL cells (pulmonary embryonic cells) and was expressed as the concentration required for inhibiting the number of plaques formed by the above virus by 50%.

[4] = test system: Herpes Simplex Virus-2 (HSV-2: G, 196 and Lyons strain); assay: Inhibition of viral cytopathogenicity in E6SM fibroblast cells, HSV-2; format: cell-based; conditions: 2nd day of incubation, numbers only in FIG. 10
[5] = test system: IL-10; assay: Gene expression of IL-10 in human synoviocytes (PCR Real Time); format: cell-based; conditions: 3 days of treatment, FIG. 1: HAS1 0.5 mg/ml, HAS3 0.1 mg/ml, vs control treated with non-sulfated HA 200 KD
Procedure: Human synoviocytes previously expanded in vitro and maintained in a culture at 37° C. with a medium of DMEM containing 10% of FCS, were seeded at a concentration of 20,000 cells per well (synoviocytes are cells capable of producing various types of cytokines, and are therefore normally used for this type of experimental test). […] After 3 days of treatment, the PCR Real Time was effected to evaluate the gene expression of IL-10 and IL-12: the cell RNA was extracted using the “Trizol” method, following the indications of the supplier (TRIZOL reagent, LIFE Technologies, GIBCO BRL). In short, the cells were lysed by the addition of 1.0 ml of Trizol and the total RNA was quantified by measuring its absorbance at 260 nm. The appropriate primers were selected for each gene to be amplified, using the software Primer3 (Roche Molecular Diagnostics, Pleasanton, Calif., USA). The gene expression was evaluated by means of PCR Real Time effected with a Rotor-gene TM5500 (Corbett research, Sydney, Australia). The PCR reactions were effected using primers at […] and SYBR Green (Invitroge, Carlsbad, Calif., USA) at 40 cycles of 15 s at 95° C., and 1 min. at 60° C. The value of “Fluorescence thresholds (Ct)” was automatically determined by the software, evaluating an amplification coefficient for the genes studied between 92 and 110%. […]

sulfated hyaluronic acid degree 3 [HAS3]
synthesis of IL-2 [1]: significantly reducing | inhibition of the binding of IL-1 to its receptor [2]: 30% | antiviral activity vs Cytomegalovirus (inhibition of the number of plaques) [3]: clear and significant positive result | antiviral activity (inhibition of the cytopathogenicity of the virus) vs HSV-2 [4]: powerful antiviral action | gene expression of the cytokine IL-10 [5]: significant increase
